Data taken from article PMC8910697, “Development of VPC-70619, a Small-Molecule N-Myc Inhibitor as a Potential Therapy for Neuroendocrine Prostate Cancer” (International Journal of Molecular Sciences, 2022).
pIC50: −log10 of the molar value. Entries after “also recorded” stand apart in the source; their conditions may differ.

Experiments:
N-Myc-Max heterodimer = biological target: T1, N-Myc-Max heterodimer (Homo sapiens, UniProt P04198+P61244); test: Proximity ligation assay (PLA) in LNCaP-NMYC cells; assay type: cell-based; conditions: 10 µM, 72 h
T1 construct: expressed in transfected cells; host or cells: LNCaP-NMYC cells (gift from David Rickman)
T1 sequence (P04198 whole entry): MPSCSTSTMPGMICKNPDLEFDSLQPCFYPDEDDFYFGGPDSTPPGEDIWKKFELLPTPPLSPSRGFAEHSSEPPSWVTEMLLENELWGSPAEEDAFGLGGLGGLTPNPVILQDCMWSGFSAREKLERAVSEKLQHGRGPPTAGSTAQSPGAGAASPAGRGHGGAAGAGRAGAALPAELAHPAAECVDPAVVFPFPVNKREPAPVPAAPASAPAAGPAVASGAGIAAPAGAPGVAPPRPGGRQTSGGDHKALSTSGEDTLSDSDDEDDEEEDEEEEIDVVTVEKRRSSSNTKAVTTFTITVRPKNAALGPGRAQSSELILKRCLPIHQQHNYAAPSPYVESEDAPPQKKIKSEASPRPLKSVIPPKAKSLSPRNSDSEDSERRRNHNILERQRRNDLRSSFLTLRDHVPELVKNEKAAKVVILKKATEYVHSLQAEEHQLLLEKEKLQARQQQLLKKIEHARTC
T1 sequence (P61244 whole entry): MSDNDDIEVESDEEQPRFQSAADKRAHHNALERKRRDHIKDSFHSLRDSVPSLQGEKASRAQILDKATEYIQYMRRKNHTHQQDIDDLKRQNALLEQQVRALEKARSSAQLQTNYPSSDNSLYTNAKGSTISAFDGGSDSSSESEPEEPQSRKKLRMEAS
Method: (§1) To confirm that 70619 could disrupt the binding of N-Myc-Max DBD to DNA, we performed a bio-layer interferometry (BLI) assay where we immobilized biotinylated E-box sequence on streptavidin sensors, and we evaluated recombinant N-Myc-Max binding to the DNA in the presence of increasing concentrations of VPC-70619. […] We observed a similar number of interactions when comparing the ratio of signal per nuclei in the presence or absence of the compound.
LNCaP-NMYC cells were seeded on coverslips at a density of 10^5 cells per well of a 6-well plate. After incubation for 24 h the cells were treated with 10 μM of either 10074-G5 or 70619 for 72 h. The coverslips were fixed with methanol:acetone (3:1) and incubated with primary antibodies n-Myc Antibody (NMYC-1) (Novus Biologicals NB200-109) (Littleton, CO, USA) and MAX Antibody (C-17) (Santa Cruz sc-197) (Dallas, TX, USA) overnight at 4 °C. PLA was conducted using the Duolink In Situ Detection Reagents Red kit (Sigma DUO92008) according to the manufacturer’s protocol. The coverslips were then mounted on slides with VECTASHIELD mounting media with DAPI, and images were taken on ZEISS 780 confocal microscope at 40× magnification.

[1] = Microsomal stability assay; assay type: in vitro ADME, Mouse; conditions: mouse liver microsomes, 1 µM compound
Method: A microsomal stability assay was performed using the Corning Gentest NADPH Regenerating System (Corning, #451220/41200) (Corning, NY, USA). Mouse liver microsomes (MLM) (Xenotech, M1000) (Kansas City, KS, USA) and compounds were diluted to a final concentration of 0.15 mg/mL and 1 μM respectively. These were prepared into a 500 μL solution with 100 mM potassium phosphate buffer (pH = 7.4). Imipramine was used as a control. NADPH solutions A and B were mixed in a 5:1 ratio, and 24 μL of the NADPH was added to each of the MLM/compound samples at 30 s intervals. At time points 10, 20, and 45 min, 100 μL of reaction was added to the stopping solution. Samples were centrifuged at 18,000× g and incubated at 4 °C for 10 min. Samples were then loaded onto a LC-MS 96-well plate for analysis.

[2] = system: N-Myc-Max transcription activity (LNCaP-NMYC cells); test: Myc transcription assay (Cignal Myc reporter, luciferase) in LNCaP-NMYC cells; assay type: cell-based
[3] = system: N-Myc-Max transcription activity (LNCaP-NMYC cells); test: as above; assay type: cell-based
How it was run: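 LNCaP-NMYC cells transfected with Cignal Myc luciferase reporter were treated 24 h with compounds at 5 µM or 10 µM. Read-out: inhibition of N-Myc-Max-driven reporter luminescence.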

[4] = system: N-Myc-Max binding to DNA E-box; test: Biolayer interferometry (BLI), N-Myc-Max binding to biotinylated E-box DNA; assay type: biochemical; conditions: BLI, 0, 50, 100, 200 µM
Description: as §1
The bHLHLZ domain of N-Myc (amino acids 309–394) and Max (amino acids 12–93) protein sequences were cloned into pETDuet with an N-terminal 6×His. pETDuet-His-NMyc-Max was transformed and expressed in E. coli BL21 and induced with 0.5 mM isopropyl-β-D-thiogalactopyranoside (IPTG) at 16 °C overnight. The cultures were lysed by sonication and combined for purification by immobilized metal ion chromatography (IMAC) with nickel-nitrilotriacetic acid (Ni-NTA) resin. The bound proteins were eluted from the column with 20 mM Tris, pH = 8, 500 mM NaCl, 5% glycerol, 300 mM imidazole, 5 mM βMe, and 0.1 mM PMSF. Size exclusion chromatography with Superdex 75 was used to increase the purity of the N-Myc-Max protein sample. The purified protein complex was used in subsequent BLI and MST experiments.
Biotinylated-duplex DNA (Forward: 5′ Biotin-[…], Reverse: […]) was bound to the super-streptavidin (SSA) ForteBio Sensor in the assay buffer [20 mM Tris pH = 8, 150 mM NaCl, 5% glycerol, and 0.2 mM TCEP]. The protein solution was mixed with the serially diluted compound (70619) to a final concentration of 0.1 mg/mL of protein and 200 μM, 100 μM, and 50 μM for the compound. Sample containing N-Myc-Max protein alone was used as a control.

microsomal half-life (T1/2) [1]	pIC50 ([3]; Homo sapiens, LNCaP, Table 1, transcriptional assay in LNCaP cells overexpressing N-Myc, read-out: IC50)	disruption of DNA binding to (N-)Myc-Max (in words) [4]	SMILES	effect on N-Myc-Max heterodimer interactions (in words) (N-Myc-Max heterodimer)	inhibition at 25 µM [2]	transcription inhibition activity (in words) ([3]; LNCaP-NMYC, screened at 10 µM and 5 µM)
3 min			O=[N+]([O-])c1ccc(Nc2ccccc2-c2ccccc2)c2nonc12 [10074-G5, reference compound]	significant decrease in the number of interactions; also recorded: the number of interactions is reduced		
	6.00	weakly disrupts DNA binding	O=C(NNc1ccc(C(F)(F)F)cc1[N+](=O)[O-])c1cnccn1 [compound 70127]		106%	strong Myc inhibitory activity
